# Assay results as given in ChEMBL document CHEMBL1201862, “PubChem BioAssay data set” (2004).
# The source made the active and inactive calls.
# Legend:
# [1] = HepG2 cell cytotoxicity, dose response, cytotoxicity control, plate reader, cherry-pick, antagonist series (AID 743416); format: functional, cell-based
# [2] = LGR2 antagonists, dose response, cell-based, HEK293, CRE-luciferase reporter, cherry pick, set 2 (AID 743343); format: functional;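 further: transfected cells were stimulated with diluted bursicon conditioned medium after compound addition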
# [3] = molecular target: T1, Heat shock factor protein 1 (Mus musculus, UniProt P38532); assay: inhibition of MG132-induced HSE-luciferase signal, confirmation, cell-based, NIH3T3, luminescence, dose retest (AID 2382); format: functional;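 further: NIH3T3 fibroblasts with HSF1-driven luciferase reporter stressed by proteasome inhibitor MG132; luminescence from HSF1-driven luciferase expression after 8 hours of MG132 stress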
# T1 sequence (P38532 whole entry): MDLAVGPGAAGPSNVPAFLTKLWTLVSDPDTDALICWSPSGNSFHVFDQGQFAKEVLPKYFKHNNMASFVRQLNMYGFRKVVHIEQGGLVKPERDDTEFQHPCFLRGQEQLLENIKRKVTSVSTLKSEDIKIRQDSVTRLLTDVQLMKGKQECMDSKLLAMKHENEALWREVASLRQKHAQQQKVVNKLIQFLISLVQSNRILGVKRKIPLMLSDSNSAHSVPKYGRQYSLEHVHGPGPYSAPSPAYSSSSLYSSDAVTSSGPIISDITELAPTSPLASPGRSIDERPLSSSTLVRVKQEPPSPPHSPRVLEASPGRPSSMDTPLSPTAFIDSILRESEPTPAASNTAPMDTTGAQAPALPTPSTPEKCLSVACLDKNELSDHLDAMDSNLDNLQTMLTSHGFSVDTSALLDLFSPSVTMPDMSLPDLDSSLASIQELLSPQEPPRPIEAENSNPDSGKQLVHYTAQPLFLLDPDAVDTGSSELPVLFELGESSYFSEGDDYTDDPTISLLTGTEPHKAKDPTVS
# HT-1080 = assay: cytotoxicity in HT1080 fibrosarcoma cells, cell-based, fluorescence readout (AID 620); format: functional; settings: Homo sapiens
# [4] = A549 cell cytotoxicity, dose response, cytotoxicity control, plate reader, cherry-pick, antagonist series (AID 743412); format: functional, cell-based
# [5] = molecular target: Luciferin 4-monooxygenase (Photinus pyralis, UniProt P08659); assay: Counter Screen for Luciferase-based Assay Positives. [Related pubchem assays: 620, 618, 411 ]
# Luciferin 4-monooxygenase, sequence (P08659 whole entry): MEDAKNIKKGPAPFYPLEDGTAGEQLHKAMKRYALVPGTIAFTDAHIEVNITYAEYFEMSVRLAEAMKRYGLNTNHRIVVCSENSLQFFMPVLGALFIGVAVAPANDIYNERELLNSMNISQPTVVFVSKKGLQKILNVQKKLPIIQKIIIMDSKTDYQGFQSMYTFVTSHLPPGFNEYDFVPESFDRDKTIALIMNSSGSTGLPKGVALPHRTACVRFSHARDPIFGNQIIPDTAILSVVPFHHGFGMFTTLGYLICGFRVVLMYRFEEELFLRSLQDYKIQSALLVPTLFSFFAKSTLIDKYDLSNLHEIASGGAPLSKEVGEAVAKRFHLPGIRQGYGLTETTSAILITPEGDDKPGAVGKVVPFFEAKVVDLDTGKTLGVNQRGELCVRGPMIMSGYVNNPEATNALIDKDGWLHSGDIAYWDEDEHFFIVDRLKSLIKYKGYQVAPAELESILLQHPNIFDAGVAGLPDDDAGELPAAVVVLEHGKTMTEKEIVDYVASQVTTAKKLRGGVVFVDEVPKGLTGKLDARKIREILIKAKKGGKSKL
# [6] = MC4R antagonists, dose response, counter-screen for LGR2 antagonist project, cell-based, plate reader, cherry pick (AID 743444); format: functional;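 further: transfected HEK 293 cells stimulated with alpha-MSH peptide; potency of inhibitors of the alpha-MSH evoked signal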
# [7] = molecular target: T2, Epstein-Barr nuclear antigen 1 (Epstein-Barr virus (strain B95-8) (HHV-4) (Human herpesvirus 4), UniProt P03211); assay: EBNA-1 inhibitors, dose response, biochemical, fluorescence polarization, 1536-well (AID 2381); set-up: species or system human gammaherpesvirus 4;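 further: fluorescence polarization of a Cy5 DNA probe bound by EBNA-1 protein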
# T2 sequence (P03211 whole entry): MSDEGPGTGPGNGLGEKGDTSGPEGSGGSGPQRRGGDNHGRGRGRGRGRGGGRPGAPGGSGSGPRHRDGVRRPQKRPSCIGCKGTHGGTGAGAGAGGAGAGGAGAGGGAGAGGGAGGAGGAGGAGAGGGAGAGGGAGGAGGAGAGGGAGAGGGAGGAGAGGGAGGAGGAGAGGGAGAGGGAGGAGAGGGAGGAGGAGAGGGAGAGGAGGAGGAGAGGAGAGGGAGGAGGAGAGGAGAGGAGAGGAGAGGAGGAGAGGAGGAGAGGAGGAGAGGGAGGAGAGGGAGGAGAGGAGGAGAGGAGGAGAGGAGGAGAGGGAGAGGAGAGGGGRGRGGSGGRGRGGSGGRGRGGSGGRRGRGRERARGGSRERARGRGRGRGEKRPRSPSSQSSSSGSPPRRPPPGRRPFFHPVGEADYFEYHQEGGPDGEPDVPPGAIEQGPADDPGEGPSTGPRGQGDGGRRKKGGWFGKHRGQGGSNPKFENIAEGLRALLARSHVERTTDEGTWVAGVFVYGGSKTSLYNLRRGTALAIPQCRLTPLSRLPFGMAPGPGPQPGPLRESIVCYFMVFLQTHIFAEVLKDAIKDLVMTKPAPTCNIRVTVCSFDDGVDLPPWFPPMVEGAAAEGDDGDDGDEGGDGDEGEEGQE
# [8] = molecular target: T3, Lytic switch protein BZLF1 (Epstein-Barr virus (strain B95-8) (HHV-4) (Human herpesvirus 4), UniProt P03206); assay: EBV ZTA inhibitors, dose response, counter-screen for EBNA-1 inhibitor project, biochemical, fluorescence polarization, Epstein-Barr virus, 1536-well (AID 2377); set-up: species or system human gammaherpesvirus 4;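 further: fluorescence polarization of Cy5-labelled ZRE DNA probe bound by purified Zta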
# T3 sequence (P03206 whole entry): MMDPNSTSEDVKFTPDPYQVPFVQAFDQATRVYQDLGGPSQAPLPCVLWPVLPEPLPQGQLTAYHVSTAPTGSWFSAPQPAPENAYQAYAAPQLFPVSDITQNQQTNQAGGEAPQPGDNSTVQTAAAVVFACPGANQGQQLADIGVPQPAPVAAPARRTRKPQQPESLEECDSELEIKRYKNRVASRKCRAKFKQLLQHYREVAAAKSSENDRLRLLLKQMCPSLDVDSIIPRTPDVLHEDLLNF
# [9] = molecular target: T4, Dual specificity protein phosphatase 6 (Rattus norvegicus, UniProt Q64346); format: functional
# T4 sequence (Q64346 whole entry): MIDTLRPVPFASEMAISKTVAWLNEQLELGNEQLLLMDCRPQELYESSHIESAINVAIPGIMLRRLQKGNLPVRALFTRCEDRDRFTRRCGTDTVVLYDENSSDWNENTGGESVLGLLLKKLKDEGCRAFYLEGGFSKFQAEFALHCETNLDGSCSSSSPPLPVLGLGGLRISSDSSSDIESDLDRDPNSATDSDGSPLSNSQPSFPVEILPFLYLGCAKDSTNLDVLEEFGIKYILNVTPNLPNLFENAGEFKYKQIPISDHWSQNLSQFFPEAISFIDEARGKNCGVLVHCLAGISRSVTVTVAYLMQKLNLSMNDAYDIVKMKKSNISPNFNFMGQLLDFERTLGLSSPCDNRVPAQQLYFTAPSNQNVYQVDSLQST
# [10] = molecular target: T5, Tyrosine-protein phosphatase non-receptor type 7 (Homo sapiens, UniProt P35236); format: functional
# T5 sequence (P35236 whole entry): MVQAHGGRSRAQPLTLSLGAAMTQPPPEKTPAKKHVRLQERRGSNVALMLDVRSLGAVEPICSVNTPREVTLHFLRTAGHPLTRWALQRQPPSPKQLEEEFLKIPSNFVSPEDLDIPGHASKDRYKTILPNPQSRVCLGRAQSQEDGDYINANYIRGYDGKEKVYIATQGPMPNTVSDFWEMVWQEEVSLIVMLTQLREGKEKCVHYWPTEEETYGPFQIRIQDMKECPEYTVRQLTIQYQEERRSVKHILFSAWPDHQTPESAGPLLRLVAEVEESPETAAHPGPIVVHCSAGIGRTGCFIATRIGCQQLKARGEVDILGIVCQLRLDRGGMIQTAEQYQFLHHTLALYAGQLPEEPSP
# [11] = molecular target: T4, Dual specificity protein phosphatase 6
# [12] = molecular target: Glyceraldehyde-3-phosphate dehydrogenase (Homo sapiens, UniProt P04406)
# Glyceraldehyde-3-phosphate dehydrogenase, sequence (P04406 whole entry): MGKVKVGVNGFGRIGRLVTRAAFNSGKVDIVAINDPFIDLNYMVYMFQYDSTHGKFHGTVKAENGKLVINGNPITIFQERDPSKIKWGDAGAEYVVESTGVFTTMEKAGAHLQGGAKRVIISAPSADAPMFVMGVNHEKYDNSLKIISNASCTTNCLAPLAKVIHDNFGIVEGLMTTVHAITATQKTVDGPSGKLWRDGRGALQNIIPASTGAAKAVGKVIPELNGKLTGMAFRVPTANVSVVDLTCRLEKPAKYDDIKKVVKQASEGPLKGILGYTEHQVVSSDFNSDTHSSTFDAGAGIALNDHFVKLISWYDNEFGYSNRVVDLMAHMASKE
# [13] = growth suppression of beta-catenin-knockout colon cells, dose response, cell-based, HCT116, human colon tumor (AID 1045); format: functional;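 further: HCT116 colon tumor cells with beta catenin knocked out; cells exposed to compound for 60 hours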
# [14] = growth suppression of PTEN-null colon cells, dose response, cell-based, HCT116 PTEN knockout (AID 1047); format: functional;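 further: HCT116 colon tumor cells with PTEN knocked out; cells exposed to compound for 60 hours before readout; potency for loss of cell viability measured by luminescence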
# Vero = assay: host cell cytotoxicity of antiviral hits, dose response, cytotoxicity control for West Nile virus antiviral project, secondary assay (AID 1650); format: functional; settings: Chlorocebus sabaeus
# [15] = molecular target: Eukaryotic translation initiation factor 4H (Homo sapiens, UniProt Q15056); assay: human eIF4H binding inhibitors, primary screen, translation initiation inhibitor project, biochemical, uHTS, fluorescence polarization (AID 2012)
# [16] = molecular target: Polyadenylate-binding protein 1 (Homo sapiens, UniProt P11940); assay: PABP poly(A) RNA binding inhibitors, primary screen, biochemical, fluorescence polarization, uHTS (AID 2014)
# Polyadenylate-binding protein 1, sequence (P11940 whole entry): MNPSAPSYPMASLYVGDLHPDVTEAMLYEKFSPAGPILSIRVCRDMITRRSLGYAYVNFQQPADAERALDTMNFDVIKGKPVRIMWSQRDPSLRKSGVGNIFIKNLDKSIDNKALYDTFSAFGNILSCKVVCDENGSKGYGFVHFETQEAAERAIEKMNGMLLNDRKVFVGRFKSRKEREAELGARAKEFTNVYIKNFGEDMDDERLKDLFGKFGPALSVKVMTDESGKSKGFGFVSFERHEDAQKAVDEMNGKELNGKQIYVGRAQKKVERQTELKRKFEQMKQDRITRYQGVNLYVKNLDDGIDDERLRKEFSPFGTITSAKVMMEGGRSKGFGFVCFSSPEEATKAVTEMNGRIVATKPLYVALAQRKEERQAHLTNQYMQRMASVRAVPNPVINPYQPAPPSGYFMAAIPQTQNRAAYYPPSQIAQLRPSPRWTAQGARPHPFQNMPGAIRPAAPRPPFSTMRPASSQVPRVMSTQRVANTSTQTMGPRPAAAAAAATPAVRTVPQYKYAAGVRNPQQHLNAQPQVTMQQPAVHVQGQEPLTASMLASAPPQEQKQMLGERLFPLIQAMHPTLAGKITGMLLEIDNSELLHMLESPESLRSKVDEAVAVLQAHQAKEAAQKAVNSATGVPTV
# Nonstructural protein 1 = Nonstructural protein 1 (Influenza A virus, UniProt Q194T2); format: functional, Influenza A virus (A/California/07/2009(H1N1))
# Nonstructural protein 1, sequence (Q194T2 whole entry): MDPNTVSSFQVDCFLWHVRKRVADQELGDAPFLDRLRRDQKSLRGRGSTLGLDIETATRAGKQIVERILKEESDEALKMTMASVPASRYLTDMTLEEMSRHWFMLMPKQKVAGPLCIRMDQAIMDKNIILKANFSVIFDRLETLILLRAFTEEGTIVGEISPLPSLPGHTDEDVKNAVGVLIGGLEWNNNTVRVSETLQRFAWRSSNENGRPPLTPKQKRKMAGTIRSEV
# [17] = molecular target: T6, Microphthalmia-associated transcription factor (Homo sapiens, UniProt O75030); assay: TRPM1 promoter luciferase signal decrease, dose response, MITF inhibitor project, cell-based, SK-MEL-5, cherry-picked, set 3 (AID 493073); format: functional
# T6 sequence (O75030 whole entry): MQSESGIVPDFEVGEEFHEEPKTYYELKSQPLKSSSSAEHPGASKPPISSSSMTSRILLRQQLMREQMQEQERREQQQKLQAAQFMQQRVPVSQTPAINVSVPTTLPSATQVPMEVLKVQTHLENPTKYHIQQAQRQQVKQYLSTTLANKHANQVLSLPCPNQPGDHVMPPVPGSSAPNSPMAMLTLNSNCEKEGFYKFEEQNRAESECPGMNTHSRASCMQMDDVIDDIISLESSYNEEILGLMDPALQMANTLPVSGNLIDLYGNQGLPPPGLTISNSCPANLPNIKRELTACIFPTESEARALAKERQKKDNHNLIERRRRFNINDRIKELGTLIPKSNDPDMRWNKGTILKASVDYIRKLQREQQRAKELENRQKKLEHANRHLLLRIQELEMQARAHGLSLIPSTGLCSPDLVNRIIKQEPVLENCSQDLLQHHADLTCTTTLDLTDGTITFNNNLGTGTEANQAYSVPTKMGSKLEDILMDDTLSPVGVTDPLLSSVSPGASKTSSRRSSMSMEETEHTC
# Estrogen receptor = molecular target: T7, Estrogen receptor (Homo sapiens, UniProt P03372);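 further: potency for inhibiting coactivator peptide recruitment to the receptor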
# T7 sequence (P03372 whole entry): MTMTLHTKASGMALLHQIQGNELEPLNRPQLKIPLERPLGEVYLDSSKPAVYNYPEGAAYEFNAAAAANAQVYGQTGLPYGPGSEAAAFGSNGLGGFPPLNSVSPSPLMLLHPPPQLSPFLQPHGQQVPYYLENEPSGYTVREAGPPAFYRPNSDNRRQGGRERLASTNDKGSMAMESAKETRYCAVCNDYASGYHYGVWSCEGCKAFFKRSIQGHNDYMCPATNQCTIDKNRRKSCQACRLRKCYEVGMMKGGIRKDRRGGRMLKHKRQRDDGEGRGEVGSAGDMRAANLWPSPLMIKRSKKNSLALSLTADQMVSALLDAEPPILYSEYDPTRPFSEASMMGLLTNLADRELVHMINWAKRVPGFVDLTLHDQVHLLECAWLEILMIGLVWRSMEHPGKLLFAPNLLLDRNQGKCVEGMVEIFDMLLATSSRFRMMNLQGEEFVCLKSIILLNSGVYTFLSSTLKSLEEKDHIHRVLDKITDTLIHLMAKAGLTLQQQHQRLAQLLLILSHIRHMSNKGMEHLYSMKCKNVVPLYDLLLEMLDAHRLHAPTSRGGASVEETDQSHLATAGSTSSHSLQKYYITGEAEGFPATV
# Estrogen receptor beta = Estrogen receptor beta (Homo sapiens, UniProt Q92731);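 further: recombinant ER-beta bound to coactivator SRC1 peptide in presence of estradiol agonist; inhibitors block coactivator peptide binding and lower the FRET signal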
# Estrogen receptor beta, sequence (Q92731 whole entry): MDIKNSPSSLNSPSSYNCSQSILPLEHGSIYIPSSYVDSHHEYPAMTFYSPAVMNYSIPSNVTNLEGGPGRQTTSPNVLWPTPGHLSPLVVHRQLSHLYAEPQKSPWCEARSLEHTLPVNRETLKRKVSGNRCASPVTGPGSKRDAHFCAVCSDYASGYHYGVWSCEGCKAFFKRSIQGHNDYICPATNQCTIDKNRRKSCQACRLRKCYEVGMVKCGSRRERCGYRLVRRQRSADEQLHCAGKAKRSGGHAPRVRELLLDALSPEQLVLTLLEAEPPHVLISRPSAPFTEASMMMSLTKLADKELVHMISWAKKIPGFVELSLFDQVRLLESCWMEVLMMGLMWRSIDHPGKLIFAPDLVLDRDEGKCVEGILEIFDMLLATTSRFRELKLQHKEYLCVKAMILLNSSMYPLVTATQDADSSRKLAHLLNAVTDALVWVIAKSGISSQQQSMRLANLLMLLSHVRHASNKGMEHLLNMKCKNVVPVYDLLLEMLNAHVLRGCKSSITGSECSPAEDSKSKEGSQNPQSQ
smiles,measurement,setting,value
Cc1oc(-c2ccc3c(c2)OCCO3)cc1C(=O)O,AC50,[1],> 52 µM (inactive)
same,AC50,[2],7.05 µM (active)
same,EC50,[3],0.312 µM (active)
same,EC50,HT-1080,> 50 µM (not active)
same,AC50,[4],> 52 µM (inactive)
same,EC50,[5],1.25 µM (active)
same,AC50,[6],7.49 µM (active)
O=C(CNC(=O)c1ccc(-c2ccccc2)cc1)OCc1c(F)cccc1Cl,IC50,[7],11.7 µM (not active)
same,IC50,[8],> 111 µM (not active)
Cc1cc(O)c2c(c1)C1C=CCC1C(C(=O)O)N2 (stereo not given),IC50,[9],> 100 µM (inactive)
same,IC50,[10],2.41 µM (active)
same,IC50,[11],> 100 µM (inactive)
same,IC50,[12],> 100 µM (not active)
CCCCn1c(=N)n(CC(O)COc2cccc(C)c2)c2ccccc21 (stereo not given),EC50,[13],5.24 µM (active)
same,EC50,[14],5.56 µM (active)
same,CC50,Vero,40.2 µM (active)
CN(CC(=O)NC(=O)NCc1ccco1)CC(=O)Nc1ccccc1Cl,IC50,[15],20.5 µM (active)
same,IC50,[16],60.8 µM (active)
O=C(CCS(=O)(=O)c1ccc(Br)cc1)N1CCN(c2ccc(F)cc2)CC1,IC50,[15],24.2 µM (active)
same,IC50,[16],> 100 µM (inactive)
CN(C)c1ccc(NC(=S)c2ccccn2)cc1,EC50,HT-1080,> 50 µM (not active)
same,IC50,Nonstructural protein 1,28.3 µM (active)
same,AC50,[17],2.84 µM (active)
same,EC50,[5],0.52 µM (active)
same,EC50,[13],136 µM (active)
same,EC50,[14],92.2 µM (active)
COc1ccc(Cl)cc1NC(=O)CN1CCN(S(=O)(=O)c2ccc(F)cc2)CC1,IC50,[7],16.4 µM (not active)
same,IC50,[8],> 111 µM (not active)
Cn1c(=O)[nH]c(=O)c2c1nc1n2CCCN1CCc1ccccc1,IC50,Estrogen receptor,> 50 µM (not active)
same,IC50,Estrogen receptor beta,> 50 µM (not active)
